Test results taken from patent US12049483B2, “Selective and noncovalent inhibitors of oncogenic RAS mutants” (New York University, priority 2020, dated 2024).
Entries after “also recorded” stand apart in the source; their conditions may differ.

Assays:
[1] = test system: RAS-mediated signaling (pERK); experiment: ERK activation in HEK293T cells co-expressing monobody and RAS mutants; assay type: cell-based; conditions: expressed intracellularly as a genetically encoded reagent
Experimental: Transient expression of KRAS and monobody for confocal imaging and signaling experiments. HEK293T cells were cultured in glass-bottom 8-well chambers (ibidi GmbH) for colocalization assays or in a 12-well plate for signaling assays for one day prior to transfection. On the day of transfection at 70-90% confluency, media were replaced with antibiotics-free complete media (DMEM supplemented with 10% FBS). Transfection of pEGFP vectors encoding the appropriate mCherry fused monobodies and EGFP fused KRAS4B constructs was performed with lipofectamine 3000 (Thermo Fisher Scientific) and according to the manufacturer's recommended protocol. […]
Cell signaling assay and quantification of immunoblots. […] The supernatant was collected and measured for total protein amount using BCA assay (Thermo Scientific; 23227). […] The proteins were then transferred from the gel to a low fluorescence background PVDF membrane (Millipore; IPFL00010) or regular PVDF membrane (Millipore; ISEQ00010) depending on whether fluorescence or chemiluminescence detection was performed. Phospho-ERK was detected using a rabbit anti-pERK antibody (Cell Signaling; 9101S) and total ERK was detected using a rabbit anti-ERK antibody (Cell Signaling; 9102S). Monobody expression was detected using mouse anti-Flag antibody (Sigma; F3165) or anti-HA tag antibody (BioLegend; 901516). […]

PATU8902 tumors = experiment: Mouse xenograft model, PATU8902; assay type: in vivo; conditions: subcutaneous PATU8902 in nude mice; dox-induced expression after tumor size exceeded 100 mm^3
Experimental: Mouse xenograft experiments. Animal experiments were approved by NYU Langone Institutional Animal Care and Use Committee (IACUC, protocol 170602). PATU8902 or H23 cells expressing monobody under a dox-inducible promotor (5×10^6) were subcutaneously injected into athymic nude mice (Charles River). Once the average tumor size exceeded 100 mm^3, the mice were given food containing doxycycline (Envigo; TD.01306). Tumor sizes were measured using a digital caliper thrice a week along with body weight to ensure that mice were healthy through the duration of doxycycline treatment.

KRAS(G12C) = KRAS(G12C) (Homo sapiens, UniProt P01116, G12C); experiment: Competitive binding assay of 12VC1 against known interaction partners of RAS (yeast display); parameters: KRAS4B residues 1-174 containing G12C, G12V, G12D, G13D, Q61L, WT; His6 (N, cleaved yes); Avi-tag (N, cleaved yes); made in house; host or cells: E. coli BL21(DE3)
Experimental: After four rounds of phage display library selection using biotinylated KRAS(G12C) at concentrations of 100 nM, 100 nM, 50 nM and 50 nM, the genes encoding monobodies from the enriched phage pool were transferred to a yeast display vector, which was used to construct yeast-display libraries. The yeast display libraries were sorted using a Bio-Rad S3e fluorescence-activated cell sorter or a [sequence] II cell sorter (BD Biosciences). […] The expression of monobodies on the surface of yeast cells were detected using mouse anti-VS and anti-mouse IgG-FITC conjugate. Target binding was detected with neutravidin Dylight650. Yeast cells were analyzed using an iQue flow cytometer (Sartorius).

HRAS(WT) = molecular target: T1, HRAS(WT) (Homo sapiens, UniProt P01112); experiment: Yeast display binding titration, HRAS(WT); conditions: GTPγS and GDP bound states
T1 construct: made in house; host or cells: E. coli BL21(DE3) with pBirA
Experimental: Nucleotide exchange of RAS. Purified RAS proteins used in binding experiment and crystallization were prepared by diluting stock protein (typically containing 20-250 μM RAS) 25 times with 20 mM Tris-Cl buffer pH 7.5 containing 5 mM EDTA, 0.1 mM DTT and 1 mM final concentration of a nucleotide (GDP or GTPγS). Samples were incubated at 30° C. for 30 minutes. MgCl2 was then added to the sample at a final concentration of 20 mM and the solution was further incubated on ice for at least 5 minutes prior to use.
Monobody development. General procedures for the development of monobodies against purified protein targets have been described previously. After four rounds of phage display library selection using biotinylated KRAS(G12C) at concentrations of 100 nM, 100 nM, 50 nM and 50 nM, the genes encoding monobodies from the enriched phage pool were transferred to a yeast display vector, which was used to construct yeast-display libraries. The yeast display libraries were sorted using a Bio-Rad S3e fluorescence-activated cell sorter or a […] II cell sorter (BD Biosciences). […] Single clones were then screened for selective binding to RAS mutants. The expression of monobodies on the surface of yeast cells were detected using mouse anti-VS and anti-mouse IgG-FITC conjugate. Target binding was detected with neutravidin Dylight650. Yeast cells were analyzed using an iQue flow cytometer (Sartorius). […]

T1 sequence (P01112 whole entry): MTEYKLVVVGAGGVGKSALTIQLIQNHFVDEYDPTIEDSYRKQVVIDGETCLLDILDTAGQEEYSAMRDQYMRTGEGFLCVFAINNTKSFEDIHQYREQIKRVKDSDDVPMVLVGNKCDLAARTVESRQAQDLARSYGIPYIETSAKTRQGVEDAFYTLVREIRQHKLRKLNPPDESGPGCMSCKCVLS

For “VSSVPTKLEVVAATPTSLLISWDAPAVTVFFYVITYGETGHGVGAFQAFKVPGSKSTATISGLKPGVDYTITVYARGYSKQGPYKPSPISINYRT [12VC1]”, which RAS-mediated signaling [1] is on record?
The RAS-mediated signaling was “potently inhibited”.

And the tumor growth (PATU8902 tumors)?
The tumor growth was “significantly reduced tumor growth”.

What about the “competition with RAF1-RBD for binding to RAS” value (KRAS(G12C)) of the same sequence?
Its value is “competed”.

What about the binding (HRAS(WT)) of the same sequence?
The binding was “no binding; also recorded: did not detectably bind”.
